Test results taken from ChEMBL document CHEMBL4402556, “Mycobacterium tuberculosis Decaprenylphosphoryl-β-d-ribose Oxidase Inhibitors: Expeditious Reconstruction of Suboptimal Hits into a Series with Potent in Vivo Activity” (J Med Chem, 2020).
Converted amounts (≈) assume the structure as drawn.

Tests used:
[1] = Kinetic aqueous solubility of the compound in phosphate buffer saline at pH 7.4 after 1 hr by CLND method; type: physicochemical; conditions: phosphate buffered saline, read-out: Kinetic_solubility
[2] = Inhibition of Mycobacterium tuberculosis DprE1 expressed in Escherichia coli BL21 (DE3) using farnesylphosphoryl-beta-D-ribose as substrate
[3] = system: Mycobacterium tuberculosis; assay: Antitubercular activity against wild type Mycobacterium tuberculosis H37Rv ATCC 25618 assessed as bacterial growth inhibition measured after 6 days by resazurin assay; type: functional; conditions: H37Rv ATCC 25618, 144 h
[4] = system: Mycobacterium tuberculosis; assay: Antitubercular activity against wild type Mycobacterium tuberculosis H37Rv ATCC 25618 transfected with pATB45luc plasmid expressing luciferase infected in human THP1 cells assessed as reduction in bacterial growth after 4 days by BrightGlo luciferase assay; type: functional; conditions: H37Rv ATCC 25618, 96 h
[5] = system: Mycobacterium tuberculosis; assay: (§1) Antitubercular activity against Mycobacterium tuberculosis H37Rv infected in po dosed C57BL/6 mouse model of acute infection assessed as reduction in mycobacterial burden in lung administration for 8 consecutive days starting from day 1 post-infection and measured after 24 hrs post-last dose; type: functional
HepG2 = assay: Cytotoxicity against human HepG2 cells assessed as reduction in cell viability measured after 48 hrs by CellTiter-Glo assay; type: cell-based; conditions: HepG2, 48 h
[6] = system: Mycobacterium tuberculosis; assay: Antibacterial activity against Mycobacterium tuberculosis transfected with pMV261 vector expressing DprE1 assessed as bacterial growth inhibition; type: functional
[7] = system: Mycobacterium tuberculosis; assay: as §1, with “effect on” for “reduction in”, “lung pretreated with CYP inhibitor ABT 2 hrs prior followed by compound” for “lung”; type: functional
Escherichia coli = assay: Antibacterial activity against Escherichia coli assessed as bacterial growth inhibition; type: functional
Staphylococcus aureus = assay: Antibacterial activity against Staphylococcus aureus assessed as bacterial growth inhibition; type: functional
[8] = Oral bioavailability in CD-1 mouse at 5 mg/kg administered as single dose measured up to 24 hrs by LC-MS/MS analysis; type: ADME, organism-based; conditions: in vivo
[9] = Half life in CD-1 mouse at 1 mg/kg, iv administered as single dose measured up to 24 hrs by LC-MS/MS analysis; type: ADME, organism-based; conditions: in vivo
[10] = Clearance in CD-1 mouse at 1 mg/kg, iv administered as single dose measured up to 24 hrs by LC-MS/MS analysis; type: ADME, organism-based; conditions: in vivo
[11] = Volume of distribution at steady state in CD-1 mouse at 1 mg/kg, iv administered as single dose measured up to 24 hrs by LC-MS/MS analysis; type: ADME, organism-based; conditions: in vivo, read-out: Vdss
[12] = Solubility of the compound in FaSSIF; type: physicochemical
[13] = system: Mycobacterium tuberculosis; assay: as §1, with “in” for “in po dosed”, “at 100 mg/kg, po treated” for “administration”, “dose (reference value: 5.8 log10cfu)” for “dose”; type: functional

SMILES | pIC50 [2] | MIC90 [3] [µM] | other results
CC1CCN(C(=O)C2CCN(c3nnc(-n4cccc4)s3)CC2)CC1 | 6.3 | 20.8 (≈ 7.48 µg/mL) | solubility kinetic at 1 h [1]: 328 µM (≈ 118 µg/mL)
O=C(C1CCN(c2nnc(-n3cccc3)s2)CC1)N1CCC(Cc2ccccc2)CC1 | 7.3 | 4 (≈ 1.74 µg/mL) | solubility kinetic at 1 h [1]: < 1 µM
COc1ncnc(Cn2cc(C(=O)NCCF)c3ncccc32)c1C | 7.4 | 4 (≈ 1.37 µg/mL) | MIC90 [4]: 0.62 µM (≈ 0.213 µg/mL); ED99 [5]: 164 mg/kg; IC50 (HepG2): > 100 µM; solubility kinetic at 1 h [1]: 26 µM (≈ 8.93 µg/mL); MIC90 [6]: > 125 µM; ED99 [7]: 11 mg/kg
CCN(CC)CCC1CCN(C(=O)C2CCN(c3cc(N4CCOCC4)ncn3)CC2)CC1 | < 4 | > 125 | –
CC(C)C1CCN(C(=O)C2CCN(c3cccc(N4CCOCC4)n3)CC2)CC1 | 5 | > 125 | –
O=C(C1CCN(c2cc(N3CCOCC3)ncn2)CC1)N1CCC(Cc2ccccc2)CC1 | 7.6 | 0.6 (≈ 0.27 µg/mL) | MIC (Escherichia coli): > 128 µg/mL; MIC90 [4]: 0.07 µM (≈ 0.0315 µg/mL); solubility kinetic at 1 h [1]: 280 µM (≈ 126 µg/mL); MIC (Staphylococcus aureus): > 128 µg/mL; MIC90 [6]: > 16 µM
CC1CCN(C(=O)C2CCN(c3cc(N4CCCC4)ncn3)CC2)CC1 | 5.9 | 23.4 (≈ 8.37 µg/mL) | –
CC(C)C1CCN(C(=O)C2CCN(c3cc(N4CCOCC4)ncn3)CC2)CC1 | 7.1 | 4 (≈ 1.61 µg/mL) | –
O=C(C1CCN(c2ccncn2)CC1)N1CCC(Cc2ccccc2)CC1 | 4.8 | > 125 | –
CC1CCN(C(=O)C2CCN(c3cc(N(C)C)ncn3)CC2)CC1 | 5 | 125 (≈ 41.4 µg/mL) | –
c1nc(N2CCCCC2)cc(N2CCOCC2)n1 | 4.1 | – | –
O=C(C1CCN(c2cc(N3CCOCC3)ncn2)CC1)N1CCC(CCN2CCCC2)CC1 | 4.1 | > 125 | –
O=C(C1CCN(c2cc(N3CCOCC3)ncn2)CC1)N1CCC(Cc2ccccc2)C1 (configuration not stated) | 6.9 | 4 (≈ 1.74 µg/mL) | –
CC(C)C1CCN(C(=O)C2CCN(c3cc(N4CCOCC4)ccn3)CC2)CC1 | 5.2 | > 125 | –
CN1CCN(c2cc(N3CCC(C(=O)N4CCC(Cc5ccccc5)CC4)CC3)ncn2)CC1 | 4.7 | 125 (≈ 57.8 µg/mL) | –
O=C(C1CCN(c2cc(N3CCOCC3)ncn2)CC1)N1CCC(Oc2ccc(Cl)cc2)CC1 | 7.5 | 1.5 (≈ 0.729 µg/mL) | –
CC(C)C1CCN(C(=O)C2CCN(c3ccnc(N4CCOCC4)c3)CC2)CC1 | 5.1 | > 125 | –
CC(=O)N1CCC(C(=O)N2CCC(C)CC2)CC1 | < 3 | – | –
O=C(C1CCN(c2cc(N3CCOCC3)ncn2)CC1)N1CCC(O)(Cc2ccccc2)CC1 | 5.8 | 10 (≈ 4.66 µg/mL) | –

SMILES | pIC50 [2] | MIC90 [3] [µM] | other results
O=C(C1CCN(c2cc(N3CCOCC3)ncn2)CC1)N1CCCC(Cc2ccccc2)C1 (configuration not stated) | 6.2 | 32 (≈ 14.4 µg/mL) | –
O=C(C1CCN(c2cc(N3CCOCC3)ncn2)CC1)N1CCC(Nc2ccccc2)CC1 | 6.4 | 10 (≈ 4.51 µg/mL) | –
CC(=O)N1CCC(C(=O)N2CCC(Cc3ccccc3)CC2)CC1 | < 4 | – | –
O=c1nc(N2CCOCC2)cc(N2CCCCC2)[nH]1 | 4.5 | – | –
O=C(C1CCN(c2cc(N3CCCCC3)ncn2)CC1)N1CCC(Cc2ccccc2)CC1 | 7.1 | 2.5 (≈ 1.12 µg/mL) | solubility kinetic at 1 h [1]: 28 µM (≈ 12.5 µg/mL)
CC(=O)N1CCN(c2cc(N3CCOCC3)ncn2)CC1 | < 4 | – | –
O=C(C1CCN(c2cc(N3CCOCC3)ncn2)CC1)N1CCC(Oc2ccc(Cl)cc2F)CC1 | 7.7 | 0.5 (≈ 0.252 µg/mL) | –
O=C(C1CCN(c2cc(N3CCOCC3)ncn2)CC1)N1CCN(c2ccc(F)cc2)CC1 | 6.2 | 20 (≈ 9.09 µg/mL) | –
CC1CCN(C(=O)C2CCN(c3cc(N4CCCCC4)ncn3)CC2)CC1 | 6.5 | 15.6 (≈ 5.8 µg/mL) | solubility kinetic at 1 h [1]: > 488 µM
O=C(C1CCN(c2cc(N3CCOCC3)ncn2)CC1)N1CCc2ccccc2C1 | 6.5 | 10 (≈ 4.08 µg/mL) | –
FC1(F)CCN(c2cc(N3CCOCC3)ncn2)C1 | 4.1 | – | –
O=C(C1CCN(c2ncnc(N3CCOCC3)c2F)CC1)N1CCC(Cc2ccccc2)CC1 | 7.2 | 1.3 (≈ 0.608 µg/mL) | –
O=C(C1CCN(c2cc(N3CCOCC3)[nH]c(=O)n2)CC1)N1CCC(Cc2ccccc2)CC1 | 7.4 | 3 (≈ 1.4 µg/mL) | –
O=C(C1CCN(c2cc(N3CCOCC3)ncn2)CC1)N1CCC(Cc2cccnc2)CC1 | 7 | 3.3 (≈ 1.49 µg/mL) | –
Nc1nc(N2CCOCC2)cc(N2CCC(C(=O)N3CCC(Cc4ccccc4)CC3)CC2)n1 | 7.3 | 3.5 (≈ 1.63 µg/mL) | –
CC1CCN(C(=O)C2CCN(c3cc(NC4CCCC4)ncn3)CC2)CC1 | 4.7 | > 125 | –
O=C(C1CCN(c2cc(N3CCOCC3)ncn2)CC1)N1CCC(CC2CCCC2)CC1 | 7.6 | 3 (≈ 1.32 µg/mL) | –
c1nc(N2CCOCC2)cc(N2CCC3(CCCO3)CC2)n1 | 4.1 | – | –
CN(C)c1cc(N2CCCCC2)ncn1 | 3.9 | – | –

SMILES | pIC50 [2] | MIC90 [3] [µM] | other results
O=C(C1CCN(c2cc(N3CCOCC3)ncn2)CC1)N1CCC(Oc2ccccc2)CC1 | 8.1 | 2 (≈ 0.903 µg/mL) | –
O=C(c1ccc(F)cc1)N1CCN(C(=O)C2CCN(c3cc(N4CCOCC4)ncn3)CC2)CC1 | 4.6 | > 80 | –
O=C(C1CCN(c2nccc(N3CCCCC3)n2)CC1)N1CCC(Cc2ccccc2)CC1 | 6.8 | 16 (≈ 7.16 µg/mL) | –
c1nc(N2CCCCC2)cc(N2CCCCC2)n1 | 4.1 | – | –
O=C(C1CCN(c2cc(N3CCOCC3)ncn2)CC1)N1CCC(Cc2ccc(F)cc2)CC1 | 7.6 | 0.6 (≈ 0.281 µg/mL) | bioavailability [8]: 100%; MIC90 [4]: 0.21 µM (≈ 0.0982 µg/mL); half-life [9]: 27 min; ED99 [5]: 30 mg/kg; IC50 (HepG2): 50.1 µM; clearance [10]: 38.9 mL/min/kg; solubility kinetic at 1 h [1]: 160 µM (≈ 74.8 µg/mL); MIC90 [6]: 15 µM (≈ 7.01 µg/mL); Vd [11]: 1.3 L/kg; solubility [12]: 40 µM (≈ 18.7 µg/mL)
CC1(C)CCCN(c2cc(N3CCOCC3)ncn2)C1 | 4.6 | – | –
O=C(C1CCN(c2cc(N3CCCCC3)ncn2)CC1)N1CCCCC1 | 5.8 | 35.6 (≈ 12.7 µg/mL) | solubility kinetic at 1 h [1]: > 405 µM
O=C(C1CCN(c2cc(N3CCOCC3)ncn2)CC1)N1CCCCC1Cc1ccccc1 (configuration not stated) | 5.4 | 125 (≈ 56.2 µg/mL) | –
CC1CCN(C(=O)C2CCN(c3cc(N4CCOCC4)ncn3)CC2)CC1 | 6 | 15.6 (≈ 5.83 µg/mL) | –
c1nc(N2CCCCCC2)cc(N2CCOCC2)n1 | < 4 | – | –
O=C(C1CCN(c2cc(N3CCOCC3)ncn2)CC1)N1CCOC(Cc2ccccc2)C1 (configuration not stated) | 5.2 | > 125 | –
O=C(C1CCN(c2cncc(N3CCOCC3)n2)CC1)N1CCC(Cc2ccccc2)CC1 | 7.4 | 3 (≈ 1.35 µg/mL) | –
CC(C)N(C)c1cc(N2CCOCC2)ncn1 | < 4 | – | –
CCC1CCN(C(=O)C2CCN(c3cc(N4CCOCC4)ncn3)CC2)CC1 | 6.8 | 8 (≈ 3.1 µg/mL) | –
O=C(C1CCN(c2cc(N3CCOCC3)ncn2)CC1)N1CCC(Oc2ccc(F)cc2F)CC1 | 7.5 | 1 (≈ 0.488 µg/mL) | –
O=C(C1CCN(c2cc(N3CCOCC3)ncn2)CC1)N1CCC(Cc2ccccn2)CC1 | 6.6 | 8.8 (≈ 3.97 µg/mL) | –
O=C(C1CCN(c2cc(N3CCOCC3)ncn2)CC1)N1CCC(Oc2ccc(F)cc2)CC1 | 7.3 | 1.7 (≈ 0.798 µg/mL) | bioavailability [8]: 78.7%; MIC90 [4]: 0.62 µM (≈ 0.291 µg/mL); half-life [9]: 60 min; ED99 [5]: 29 mg/kg; IC50 (HepG2): 31.6 µM; clearance [10]: 23.5 mL/min/kg; solubility kinetic at 1 h [1]: ≥ 364 µM; MIC90 [6]: 62 µM (≈ 29.1 µg/mL); Vd [11]: 1.7 L/kg; solubility [12]: 74 µM (≈ 34.7 µg/mL)
Cc1ccc(OC2CCN(C(=O)C3CCN(c4cc(N5CCOCC5)ncn4)CC3)CC2)nc1 | 6.2 | 16 (≈ 7.47 µg/mL) | –
COc1c(N2C[C@@H]3CCCN[C@@H]3C2)c(F)cc2c(=O)c(C(=O)O)cn(C3CC3)c12 [MOXIFLOXACIN] | – | – | Activity [13]: 2.7 log10CFU
